In article PMC4127372 (Journal of pharmaceutical and biomedical analysis, 2014):

Settings: pre-tested baboon plasma following intravenous infusion

CCCCCCCCCCNCCN[C@@]1(C)C[C@H](O[C@H]2[C@H](Oc3c4cc5cc3Oc3ccc(cc3Cl)[C@@H](O)[C@@H](NC(=O)[C@@H](CC(C)C)NC)C(=O)N[C@@H](CC(N)=O)C(=O)N[C@H]5C(=O)N[C@H]3C(=O)N[C@H](C(=O)N[C@H](C(=O)O)c5cc(O)c(CNCP(=O)(O)O)c(O)c5-c5cc3ccc5O)[C@H](O)c3ccc(c(Cl)c3)O4)O[C@H](CO)[C@@H](O)[C@@H]2O)O[C@@H](C)[C@H]1O [telavancin]
lowest concentration of telavancin determined in pre-tested baboon plasma: approximately 200 ng/ml
